Data from PMC8297715 (ACS chemical biology, 2020).

Tests used:
[1] = biological target: T1, human AChE (Homo sapiens, UniProt P22303); settings: cited from earlier work
[2] = biological target: T2, human nSMase2 (Homo sapiens, UniProt Q9NY59); experiment: Amplex Red neutral sphingomyelinase enzyme activity assay; assay type: biochemical
T2 sequence (Q9NY59 1-655): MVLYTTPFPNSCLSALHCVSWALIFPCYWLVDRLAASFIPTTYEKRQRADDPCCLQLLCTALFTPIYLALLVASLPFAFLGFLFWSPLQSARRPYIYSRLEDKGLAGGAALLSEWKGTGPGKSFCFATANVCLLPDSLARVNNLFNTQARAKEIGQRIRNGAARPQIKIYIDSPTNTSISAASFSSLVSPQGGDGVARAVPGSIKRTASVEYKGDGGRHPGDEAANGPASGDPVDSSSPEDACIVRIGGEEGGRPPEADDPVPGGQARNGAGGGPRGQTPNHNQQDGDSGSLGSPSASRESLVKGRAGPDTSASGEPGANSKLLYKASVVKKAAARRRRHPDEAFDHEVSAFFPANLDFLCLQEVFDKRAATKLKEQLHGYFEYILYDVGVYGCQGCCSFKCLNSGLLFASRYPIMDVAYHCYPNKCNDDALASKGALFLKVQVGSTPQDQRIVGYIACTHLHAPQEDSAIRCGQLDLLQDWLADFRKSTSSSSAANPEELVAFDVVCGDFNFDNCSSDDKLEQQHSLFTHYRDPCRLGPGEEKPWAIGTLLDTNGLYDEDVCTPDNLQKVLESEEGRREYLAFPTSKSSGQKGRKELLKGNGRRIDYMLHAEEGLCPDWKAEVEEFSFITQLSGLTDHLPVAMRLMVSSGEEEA

[3] = tested on: HEK293T Tau RD P301S FRET biosensor (tau biosensor); settings: previously published; cited from earlier work
[4] = biological target: T1, human AChE; experiment: Amplex Red acetylcholinesterase; assay type: biochemical; settings: read-out: AChE inhibition IC50; dose-response; human AChE (Sigma)
[5] = tested on: HEK293T Tau RD P301S FRET biosensor (tau biosensor); experiment: EV-mediated transfer; assay type: cell-based; settings: 20 μM

T1 sequence (P22303 32-614): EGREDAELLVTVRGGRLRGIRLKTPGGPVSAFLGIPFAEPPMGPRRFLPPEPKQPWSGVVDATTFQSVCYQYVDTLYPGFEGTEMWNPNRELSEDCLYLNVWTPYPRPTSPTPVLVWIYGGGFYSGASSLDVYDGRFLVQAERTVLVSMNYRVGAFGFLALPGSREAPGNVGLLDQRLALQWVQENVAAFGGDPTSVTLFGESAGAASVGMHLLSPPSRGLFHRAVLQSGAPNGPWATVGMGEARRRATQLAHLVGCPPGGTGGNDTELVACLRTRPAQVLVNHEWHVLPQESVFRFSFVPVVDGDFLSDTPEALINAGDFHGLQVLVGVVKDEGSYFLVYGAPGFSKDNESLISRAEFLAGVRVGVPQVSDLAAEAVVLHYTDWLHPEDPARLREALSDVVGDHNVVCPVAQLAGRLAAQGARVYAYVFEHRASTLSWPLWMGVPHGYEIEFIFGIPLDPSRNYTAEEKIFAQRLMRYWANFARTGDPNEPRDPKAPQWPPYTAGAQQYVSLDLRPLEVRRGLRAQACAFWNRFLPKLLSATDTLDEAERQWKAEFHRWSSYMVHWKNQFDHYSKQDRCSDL

CN1CC[C@]2(C)c3cc(OC(=O)Nc4ccccc4)ccc3N(C)[C@H]12 [Posiphen]
AChE inhibitor activity ([1]; reported): weak AChE inhibitor | IC50 [2]: > 50 µM

O=c1[nH]c(=S)[nH]c(-c2ccccc2)c1Cc1c(O)ccc2ccccc12 [cambinol]
AChE activity ([1]; previously published): no AChE activity | tau seed transfer in the EMT assay [3]: shows inhibition of tau seed transfer

CN1c2ccc(OC(=O)Nc3ccccc3)cc2[C@]2(C)CCO[C@H]12 [compound 1, (−)-phensvenine]
IC50 [4]: 0.5 µM

CN1CC[C@@]2(C)c3cc(OC(=O)Nc4ccccc4)ccc3N(C)[C@@H]12 [phenserine]
IC50 [2]: > 50 µM

CCN(C)C(=O)Oc1cccc([C@H](C)N(C)C)c1 [rivastigmine]
nSMase2 activity [2]: no nSMase2 activity | EV-mediated tau seed transfer, EMT assay [5]: partially suppress
